Each compound was assayed on HEK293T cells carrying the ATF4 luciferase reporter (assay: ATF4-Luc assay, in vitro model of Vanishing Cell White Matter Disease (VWMD)). Conditions: Homo sapiens, HEK-293T, 1 μg/mL tunicamycin, 7 hours, One Glo luminescence.
Format: cell-based
Method in brief: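 Stable HEK293T line with human ATF4 5′-UTR–firefly luciferase reporter treated with 1 μg/mL tunicamycin plus 200 nM compound for 7 h. Luminescence read; EC50 derived.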

CCn1nc(C)cc1C(=O)NC12CC(NC(=O)COc3ccc(Cl)c(F)c3)(C1)C2 [Compound 359, N-{3-[2-(4-chloro-3-fluorophenoxy)acetamido]bicyclo[1.1.1]pentan-1-yl}-1-ethyl-3-methyl-1H-pyrazole-5-carboxamide] and Cc1cc(C(=O)NC23CC(NC(=O)COc4ccc(Cl)c(F)c4)(C2)C3)no1 [Compound 273, N-{3-[2-(4-chloro-3-fluorophenoxy)acetamido]bicyclo[1.1.1]pentan-1-yl}-5-methyl-1,2-oxazole-3-carboxamide] fall in the same range of EC50: 250 to 1000 nM for the first, 250 to 1000 nM for the second.

First: O=C(COc1ccc(Cl)c(F)c1)NC12CCC(NC(=O)c3csc(C4CC4)n3)(CC1)CC2O (stereo not drawn) [Compound 522, N-{4-[2-(4-chloro-3-fluorophenoxy)acetamido]-3-hydroxybicyclo[2.2.2]octan-1-yl}-2-cyclopropyl-1,3-thiazole-4-carboxamide]
Second: COCc1nc(C(=O)NC23CCC(NC(=O)COc4ccc(Cl)c(F)c4)(CC2)[C@@H](O)C3)cs1 [Compound 619, N-{(3S)-4-[2-(4-chloro-3-fluorophenoxy)acetamido]-3-hydroxybicyclo[2.2.2]octan-1-yl}-2-(methoxymethyl)-1,3-thiazole-4-carboxamide]
The EC50 of the first is higher: 50 to 250 nM for the first, < 50 nM for the second. The second is the more potent here.

Compared with COc1cscc1C(=O)NC12CC(NC(=O)COc3ccc(Cl)c(F)c3)(C1)C2 [Compound 557, N-{3-[2-(4-chloro-3-fluorophenoxy)acetamido]bicyclo[1.1.1]pentan-1-yl}-4-methoxythiophene-3-carboxamide], COc1cc(F)ccc1C(=O)NC12CC(NC(=O)COc3ccc(Cl)c(F)c3)(C1)C2 [Compound 527, N-{3-[2-(4-chloro-3-fluorophenoxy)acetamido]bicyclo[1.1.1]pentan-1-yl}-4-fluoro-2-methoxybenzamide] is lower in EC50: > 2000 nM for the first, 1000 to 2000 nM for the second.

First: O=C(COc1ccc(Cl)cc1)NC12CC(Nc3noc(-c4ccc(Cl)cc4)n3)(C1)C2 [Compound 287, 2-(4-chlorophenoxy)-N-(3-{[5-(4-chlorophenyl)-1,2,4-oxadiazol-3-yl]amino}bicyclo[1.1.1]pentan-1-yl)acetamide]
Second: O=C(COc1ccc(Cl)c(F)c1)NC12CC(NC(=O)c3cnc4ccccc4n3)(C1)C2 [Compound 482, N-{3-[2-(4-chloro-3-fluorophenoxy)acetamido]bicyclo[1.1.1]pentan-1-yl}quinoxaline-2-carboxamide]
The EC50 of the first is higher: 50 to 250 nM for the first, < 50 nM for the second.

Compared with O=C(COc1ccc(Cl)c(Cl)c1)NC12CC(NC(=O)c3cc(CO)ccn3)(C1)C2 [Compound 166, N-{3-[2-(3,4-dichlorophenoxy)acetamido]bicyclo[1.1.1]pentan-1-yl}-4-(hydroxymethyl)pyridine-2-carboxamide], O=C(COc1ccc(Cl)c(Cl)c1)NC12CC(NC(=O)c3ccnc(CO)c3)(C1)C2 [Compound 715, N-{3-[2-(3,4-dichlorophenoxy)acetamido]bicyclo[1.1.1]pentan-1-yl}-2-(hydroxymethyl)pyridine-4-carboxamide] is higher in EC50: 50 to 250 nM for the first, 1000 to 2000 nM for the second. The first is the more potent here.

Compared with O=C(COc1ccc2c(c1)OC(F)(F)O2)NC12CC(NC(=O)c3ccc(C(=O)O)cc3)(C1)C2 [Compound 128, 4-[(3-{2-[(2,2-difluoro-2H-1,3-benzodioxol-5-yl)oxy]acetamido}bicyclo[1.1.1]-pentan-1-yl)carbamoyl]benzoic acid], O=C(COc1ccc2c(c1)OC(F)(F)O2)NC12CC(NC(=O)c3ccc(OC(F)(F)F)cn3)(C1)C2 [Compound 378, N-(3-{2-[(2,2-difluoro-2H-1,3-benzodioxol-5-yl)oxy]acetamido}bicyclo[1.1.1]pentan-1-yl)-5-(trifluoromethoxy)pyridine-2-carboxamide] is lower in EC50: > 2000 nM for the first, < 50 nM for the second. The second is the more potent here.

First: O=C(COc1ccc(Cl)c(F)c1)NC12CCC(NC(=O)c3cnc4ccccc4n3)(CC1)C(O)C2 (stereo not drawn) [Compound 223, N-{4-[2-(4-chloro-3-fluorophenoxy)acetamido]-2-hydroxybicyclo[2.2.2]octan-1-yl}quinoxaline-2-carboxamide]
Second: O=C(COc1ccc(Cl)c(F)c1)NC12CCC(NC(=O)c3onc4ccccc34)(CC1)CC2O (stereo not drawn) [Compound 328, N-{4-[2-(4-chloro-3-fluorophenoxy)acetamido]-3-hydroxybicyclo[2.2.2]octan-1-yl}-2,1-benzoxazole-3-carboxamide]
The EC50 of the first is lower: 50 to 250 nM for the first, 1000 to 2000 nM for the second. The first is the more potent here.

CC(C)c1nc(C(=O)NC23CCC(NC(=O)COc4ccc(Cl)c(F)c4)(CC2)C(O)C3)co1 (stereo not drawn) [Compound 607, N-{4-[2-(4-chloro-3-fluorophenoxy)acetamido]-3-hydroxybicyclo[2.2.2]octan-1-yl}-2-(propan-2-yl)-1,3-oxazole-4-carboxamide] and Cc1nn(C)c(C(=O)NC23CCC(NC(=O)COc4ccc(Cl)c(F)c4)(CC2)C(O)C3)c1F (stereo not drawn) [Compound 517, N-{4-[2-(4-chloro-3-fluorophenoxy)acetamido]-3-hydroxybicyclo[2.2.2]octan-1-yl}-4-fluoro-1,3-dimethyl-1H-pyrazole-5-carboxamide] fall in the same range of EC50: 50 to 250 nM for the first, 50 to 250 nM for the second.

O=C(COc1ccc(Cl)c(Cl)c1)NC12CC(NC(=O)c3nc(C4CC4)cs3)(C1)C2 [Compound 697, 4-cyclopropyl-N-{3-[2-(3,4-dichlorophenoxy)acetamido]bicyclo[1.1.1]pentan-1-yl}-1,3-thiazole-2-carboxamide] and CCc1nc(C(=O)NC23CC(NC(=O)COc4ccc(Cl)c(F)c4)(C2)C3)cs1 [Compound 554, N-{3-[2-(4-chloro-3-fluorophenoxy)acetamido]bicyclo[1.1.1]pentan-1-yl}-2-ethyl-1,3-thiazole-4-carboxamide] cannot be ordered by EC50: < 50 nM for the first, < 50 nM for the second.

Compared with O=C(COc1ccc(Cl)c(F)c1)NC12CC(NC(=O)c3cc(CCO)ccn3)(C1)C2 [Compound 282, N-{3-[2-(4-chloro-3-fluorophenoxy)acetamido]bicyclo[1.1.1]pentan-1-yl}-4-(2-hydroxyethyl)pyridine-2-carboxamide], O=C(COc1ccc(Cl)c(F)c1)NC12CC(NC(=O)c3ccnc(CO)c3)(C1)C2 [Compound 741, N-{3-[2-(4-chloro-3-fluorophenoxy)acetamido]bicyclo[1.1.1]pentan-1-yl}-2-(hydroxymethyl)pyridine-4-carboxamide] is higher in EC50: 250 to 1000 nM for the first, > 2000 nM for the second. The first is the more potent here.

First: O=C(COc1ccc(Cl)c(F)c1)NC12CCC(NC(=O)c3ccc4c(c3)OCO4)(CC1)C(O)C2 (stereo not drawn) [Compound 211, N-{4-[2-(4-chloro-3-fluorophenoxy)acetamido]-2-hydroxybicyclo[2.2.2]octan-1-yl}-2H-1,3-benzodioxole-5-carboxamide]
Second: Cc1nn(C)c(C(=O)NC23CCC(NC(=O)COc4ccc(Cl)c(F)c4)(CC2)C[C@@H]3O)c1F [Compound 498, N-{(2S)-4-[2-(4-chloro-3-fluorophenoxy)acetamido]-2-hydroxybicyclo[2.2.2]octan-1-yl}-4-fluoro-1,3-dimethyl-1H-pyrazole-5-carboxamide]
The EC50 of the first is higher: 1000 to 2000 nM for the first, < 50 nM for the second. The second is the more potent here.

First: O=C(COc1ccc(Cl)c(F)c1)NC12CC(NC(=O)c3ccc4ncoc4c3)(C1)C2 [Compound 834, N-{3-[2-(4-chloro-3-fluorophenoxy)acetamido]bicyclo[1.1.1]pentan-1-yl}-1,3-benzoxazole-6-carboxamide]
Second: O=C(COc1ccc(Cl)c(F)c1)NC12CC(NC(=O)c3ccc4nccnc4c3)(C1)C2 [Compound 766, N-{3-[2-(4-chloro-3-fluorophenoxy)acetamido]bicyclo[1.1.1]pentan-1-yl}quinoxaline-6-carboxamide]
The EC50 of the first is lower: 250 to 1000 nM for the first, > 2000 nM for the second.

Cn1nc(C(=O)NC23CC(NC(=O)COc4ccc(Cl)c(F)c4)(C2)C3)c2ccccc21 [Compound 823, N-{3-[2-(4-chloro-3-fluorophenoxy)acetamido]bicyclo[1.1.1]pentan-1-yl}-1-methyl-1H-indazole-3-carboxamide] and CSc1ncccc1C(=O)NC12CC(NC(=O)COc3ccc(Cl)c(F)c3)(C1)C2 [Compound 828, N-{3-[2-(4-chloro-3-fluorophenoxy)acetamido]bicyclo[1.1.1]pentan-1-yl}-2-(methylsulfanyl)pyridine-3-carboxamide] cannot be ordered by EC50: > 2000 nM for the first, > 2000 nM for the second.

First: O=C(COc1ccc(Cl)c(F)c1)NC12CC(NC(=O)c3ccncc3)(C1)C2 [Compound 186, N-{3-[2-(4-chloro-3-fluorophenoxy)acetamido]bicyclo[1.1.1]pentan-1-yl}pyridine-4-carboxamide]
Second: O=C(COc1ccc(Cl)c(F)c1)NC12CC(NC(=O)c3ccc(OC(F)F)nc3)(C1)C2 [Compound 440, N-{3-[2-(4-chloro-3-fluorophenoxy)acetamido]bicyclo[1.1.1]pentan-1-yl}-6-(difluoromethoxy)pyridine-3-carboxamide]
The EC50 of the first is higher: 250 to 1000 nM for the first, 50 to 250 nM for the second. The second is the more potent here.

First: N#Cc1ccsc1C(=O)NC12CC(NC(=O)COc3ccc(Cl)c(F)c3)(C1)C2 [Compound 860, N-{3-[2-(4-chloro-3-fluorophenoxy)acetamido]bicyclo[1.1.1]pentan-1-yl}-3-cyanothiophene-2-carboxamide]
Second: CCc1noc(C(=O)NC23CC(NC(=O)COc4ccc(Cl)c(F)c4)(C2)C3)n1 [Compound 479, N-{3-[2-(4-chloro-3-fluorophenoxy)acetamido]bicyclo[1.1.1]pentan-1-yl}-3-ethyl-1,2,4-oxadiazole-5-carboxamide]
The EC50 of the first is higher: 1000 to 2000 nM for the first, 50 to 250 nM for the second. The second is the more potent here.

Compared with O=C(COc1ccc(Cl)c(Cl)c1)NC12CC(NC(=O)c3ccc(OC(F)(F)F)cn3)(C1)C2 [Compound 144, N-{3-[2-(3,4-dichlorophenoxy)acetamido]bicyclo[1.1.1]pentan-1-yl}-5-(trifluoromethoxy)pyridine-2-carboxamide], CCCCc1ccc(C(=O)NC23CC(NC(=O)COc4ccc(Cl)c(F)c4)(C2)C3)nc1 [Compound 135, 5-butyl-N-{3-[2-(4-chloro-3-fluorophenoxy)acetamido]bicyclo[1.1.1]pentan-1-yl}pyridine-2-carboxamide] is higher in EC50: < 50 nM for the first, 50 to 250 nM for the second.

For O=C(COc1ccc(Cl)c(F)c1)NC12CC(Nc3ccnc(N4CCOCC4)n3)(C1)C2 [Compound 721, 2-(4-chloro-3-fluorophenoxy)-N-(3-{[2-(morpholin-4-yl)pyrimidin-4-yl]amino}bicyclo[1.1.1]pentan-1-yl)acetamide], the EC50 was > 2000 nM.

— patent US10913727B2, “Modulators of the integrated stress pathway” (Calico Life Sciences LLC, priority 2016, dated 2021)
